Measured values from PubChem BioAssay (NCI).
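A five-concentration, 48-hour dose response in 96-well plates underlies each endpoint, interpolated linearly between surrounding concentrations. At the GI50, growth is halved. TGI is the concentration that stops growth completely.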

Assays:
Assay in all cases: NCI anticancer screen, dose series, 48 h
SK-MEL-28 melanoma = test system: SK-MEL-28 melanoma
NCI/ADR-RES ovarian = test system: NCI/ADR-RES ovarian
KM12 colon = test system: KM12 colon
NCI-H460 lung = test system: NCI-H460 lung
NCI-H23 lung = test system: NCI-H23 lung
HCT-116 colon = test system: HCT-116 colon
A498 renal = test system: A498 renal
CCRF-CEM leukemia = test system: CCRF-CEM leukemia
HT29 colon = test system: HT29 colon
OVCAR-3 ovarian = test system: OVCAR-3 ovarian
HL-60(TB) leukemia = test system: HL-60(TB) leukemia
MOLT-4 leukemia = test system: MOLT-4 leukemia
K-562 leukemia = test system: K-562 leukemia
SNB-75 CNS = test system: SNB-75 CNS
HCT-15 colon = test system: HCT-15 colon
PC-3 prostate = test system: PC-3 prostate
LOX IMVI melanoma = test system: LOX IMVI melanoma
RXF 393 renal = test system: RXF 393 renal
RPMI-8226 leukemia = test system: RPMI-8226 leukemia
OVCAR-4 ovarian = test system: OVCAR-4 ovarian
SK-MEL-5 melanoma = test system: SK-MEL-5 melanoma
SK-MEL-2 melanoma = test system: SK-MEL-2 melanoma
SF-268 CNS = test system: SF-268 CNS
HOP-92 NSCLC = test system: HOP-92 NSCLC
HS 578T breast = test system: HS 578T breast
NCI-H226 lung = test system: NCI-H226 lung
UO-31 renal = test system: UO-31 renal
SK-OV-3 ovarian = test system: SK-OV-3 ovarian
T-47D breast = test system: T-47D breast
SF-539 CNS = test system: SF-539 CNS
SN12C renal = test system: SN12C renal
M14 melanoma = test system: M14 melanoma
UACC-62 melanoma = test system: UACC-62 melanoma
OVCAR-5 ovarian = test system: OVCAR-5 ovarian
A549 NSCLC = test system: A549 NSCLC
HOP-62 NSCLC = test system: HOP-62 NSCLC
SW-620 colon = test system: SW-620 colon
EKVX NSCLC = test system: EKVX NSCLC
786-0 renal = test system: 786-0 renal
MDA-MB-231 breast = test system: MDA-MB-231 breast
DU-145 prostate = test system: DU-145 prostate
SNB-19 CNS = test system: SNB-19 CNS
NCI-H522 lung = test system: NCI-H522 lung
ACHN renal = test system: ACHN renal
OVCAR-8 ovarian = test system: OVCAR-8 ovarian
TK-10 renal = test system: TK-10 renal
SF-295 CNS = test system: SF-295 CNS
MCF7 breast = test system: MCF7 breast
BT-549 breast = test system: BT-549 breast
CAKI-1 renal = test system: CAKI-1 renal
HCC-2998 colon = test system: HCC-2998 colon

CCCCCCCCCCCCCCCCCC[n+]1ccc2c(C)c3c(c(C)c2c1)c1cc(O)ccc1n3CC
GI50 (SK-MEL-28 melanoma): 1.91 µM
TGI (SK-MEL-28 melanoma): 4.98 µM
GI50 (NCI/ADR-RES ovarian): 10.8 µM
TGI (NCI/ADR-RES ovarian): 39 µM
GI50 (KM12 colon): 2.01 µM
TGI (KM12 colon): > 100 µM
GI50 (NCI-H460 lung): 1.72 µM
TGI (NCI-H460 lung): 4.18 µM
GI50 (NCI-H23 lung): 0.912 µM
TGI (NCI-H23 lung): 6.57 µM
GI50 (HCT-116 colon): 1.19 µM
TGI (HCT-116 colon): 12.7 µM
GI50 (A498 renal): 1.19 µM
TGI (A498 renal): 3.86 µM
GI50 (CCRF-CEM leukemia): 3.27 µM
TGI (CCRF-CEM leukemia): 34.2 µM
GI50 (HT29 colon): 1.14 µM
TGI (HT29 colon): 15.2 µM
GI50 (OVCAR-3 ovarian): 1.88 µM
TGI (OVCAR-3 ovarian): 4.68 µM
GI50 (HL-60(TB) leukemia): 2.33 µM
TGI (HL-60(TB) leukemia): 12.4 µM
GI50 (MOLT-4 leukemia): 2.53 µM
TGI (MOLT-4 leukemia): 14.9 µM
GI50 (K-562 leukemia): 1.1 µM
TGI (K-562 leukemia): 9.13 µM
GI50 (SNB-75 CNS): 2.27 µM
TGI (SNB-75 CNS): 12 µM
GI50 (HCT-15 colon): 3.34 µM
TGI (HCT-15 colon): 47.1 µM
GI50 (PC-3 prostate): 1.3 µM
TGI (PC-3 prostate): 11 µM
GI50 (LOX IMVI melanoma): 2.73 µM
TGI (LOX IMVI melanoma): 10.3 µM
GI50 (RXF 393 renal): 1.57 µM
TGI (RXF 393 renal): 3.89 µM
GI50 (RPMI-8226 leukemia): 1.58 µM
TGI (RPMI-8226 leukemia): 17.5 µM
GI50 (OVCAR-4 ovarian): 0.954 µM
TGI (OVCAR-4 ovarian): 12 µM
GI50 (SK-MEL-5 melanoma): 1.34 µM
TGI (SK-MEL-5 melanoma): 2.85 µM
GI50 (SK-MEL-2 melanoma): 1.58 µM
TGI (SK-MEL-2 melanoma): 3.27 µM
GI50 (SF-268 CNS): 1.95 µM
TGI (SF-268 CNS): 5.11 µM
GI50 (HOP-92 NSCLC): 1.64 µM
TGI (HOP-92 NSCLC): 5.68 µM
GI50 (HS 578T breast): 2.23 µM
TGI (HS 578T breast): 7.79 µM
GI50 (NCI-H226 lung): 1.88 µM
TGI (NCI-H226 lung): 8.68 µM
GI50 (UO-31 renal): 3.39 µM
TGI (UO-31 renal): 18.7 µM
GI50 (SK-OV-3 ovarian): 1.84 µM
TGI (SK-OV-3 ovarian): 7.6 µM
GI50 (T-47D breast): 2.57 µM
TGI (T-47D breast): 27.3 µM
GI50 (SF-539 CNS): 2.2 µM
TGI (SF-539 CNS): 5.59 µM
GI50 (SN12C renal): 1.79 µM
TGI (SN12C renal): 6.08 µM
GI50 (M14 melanoma): 1.43 µM
TGI (M14 melanoma): 3.34 µM
GI50 (UACC-62 melanoma): 1.29 µM
TGI (UACC-62 melanoma): 3.38 µM
GI50 (OVCAR-5 ovarian): 4.38 µM
TGI (OVCAR-5 ovarian): 24.8 µM
GI50 (A549 NSCLC): 1.28 µM
TGI (A549 NSCLC): 5.47 µM
GI50 (HOP-62 NSCLC): 2.66 µM
TGI (HOP-62 NSCLC): 10.4 µM
GI50 (SW-620 colon): 1.79 µM
TGI (SW-620 colon): 7.1 µM
GI50 (EKVX NSCLC): 2.15 µM
TGI (EKVX NSCLC): 9.93 µM
GI50 (786-0 renal): 2.21 µM
TGI (786-0 renal): 10.4 µM
GI50 (MDA-MB-231 breast): 2.76 µM
TGI (MDA-MB-231 breast): 12.7 µM
GI50 (DU-145 prostate): 1.87 µM
TGI (DU-145 prostate): 5.64 µM
GI50 (SNB-19 CNS): 1.79 µM
TGI (SNB-19 CNS): 6.36 µM
GI50 (NCI-H522 lung): 1.89 µM
TGI (NCI-H522 lung): 18.1 µM
GI50 (ACHN renal): 3.51 µM
TGI (ACHN renal): 19.6 µM
GI50 (OVCAR-8 ovarian): 1.71 µM
TGI (OVCAR-8 ovarian): 6.53 µM
GI50 (TK-10 renal): 1.49 µM
TGI (TK-10 renal): 4.13 µM
GI50 (SF-295 CNS): 1.42 µM
TGI (SF-295 CNS): 4.3 µM
GI50 (MCF7 breast): 2.75 µM
TGI (MCF7 breast): 17.1 µM
GI50 (BT-549 breast): 2.72 µM
TGI (BT-549 breast): 10.5 µM
GI50 (CAKI-1 renal): 11.5 µM
TGI (CAKI-1 renal): 28.7 µM
GI50 (HCC-2998 colon): 2.9 µM
TGI (HCC-2998 colon): 20.6 µM
